Where “and” joins values, the source holds several entries; their conditions need not be identical. Equal entries are not always repeated. Marks after values point to notes of the source that are not given here.
Experiments:
[1] = target: M2 D103N (Homo sapiens, UniProt P08172, D103N); assay type: binding
[2] = tested on: M2 D69N; assay type: binding, human
[3] = tested on: M2 D103N + M2 D69N; assay type: binding, human
[4] = target: T1, M2 D69N/D103N (Homo sapiens, UniProt P08172, D103N/D69N); assay type: binding
[5] = tested on: M3 D148N; assay type: binding, human
[6] = tested on: M3 D114N; assay type: binding, human
[7] = tested on: M3 D148N + M3 D114N; assay type: binding, human
[8] = target: T2, M3 D114N/D148N (Homo sapiens, UniProt P20309, D114N/D148N); assay type: binding
[9] = tested on: M4 D112N; assay type: binding, human
[10] = tested on: M4 D78N; assay type: binding, human
[11] = tested on: M4 D1 12N + M4 D78N; assay type: binding, human
[12] = target: T3, M4 D78N/D112N (Homo sapiens, UniProt P08173, D112N/D78N); assay type: binding
[13] = target: wild type M4 receptor (Homo sapiens, UniProt P08173); test: biochemical; assay type: binding
[14] = target: T1, M2 D69N/D103N; assay type: binding; remark: listed apart in the source
[15] = target: T3, M4 D78N/D112N; assay type: binding; remark: listed apart in the source
[16] = target: T1, M2 D69N/D103N; test: biochemical; assay type: binding
[17] = target: T3, M4 D78N/D112N; test: biochemical; assay type: binding
[18] = target: wild type M1 muscarinic receptors (Homo sapiens, UniProt P11229); assay type: binding
[19] = target: wild type M2 muscarinic receptors (Homo sapiens, UniProt P08172); assay type: binding
[20] = tested on: cerebral muscarinic receptors; assay type: binding, rat
[21] = tested on: M3 receptors; assay type: binding, human
[22] = tested on: M4 receptors; assay type: binding, human
[23] = tested on: M1 – M4 muscarinic receptors; assay type: binding, human
[24] = tested on: guinea pig ileum; conditions: cited from earlier work
[25] = target: M2 wild type (Homo sapiens, UniProt P08172); assay type: binding
[26] = tested on: wild type M4 receptors; assay type: binding, human
[27] = target: T2, M3 D114N/D148N
[28] = read-out: inhibition of [3H]NMS binding

T1 sequence (P08172 whole entry D69N/D103N, looked up): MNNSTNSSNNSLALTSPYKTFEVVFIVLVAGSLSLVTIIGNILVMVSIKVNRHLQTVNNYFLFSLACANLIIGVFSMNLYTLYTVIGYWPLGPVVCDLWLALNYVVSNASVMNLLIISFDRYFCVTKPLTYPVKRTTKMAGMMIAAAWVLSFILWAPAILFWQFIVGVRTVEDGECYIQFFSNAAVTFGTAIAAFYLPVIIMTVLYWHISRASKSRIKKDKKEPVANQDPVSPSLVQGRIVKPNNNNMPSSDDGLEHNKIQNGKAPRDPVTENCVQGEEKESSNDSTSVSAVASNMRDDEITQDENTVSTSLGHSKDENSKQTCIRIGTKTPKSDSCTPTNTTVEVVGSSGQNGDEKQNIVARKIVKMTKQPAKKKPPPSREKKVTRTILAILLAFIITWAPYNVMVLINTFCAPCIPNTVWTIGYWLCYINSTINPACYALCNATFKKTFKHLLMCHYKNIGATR
T3 sequence (P08173 whole entry D78N/D112N, looked up): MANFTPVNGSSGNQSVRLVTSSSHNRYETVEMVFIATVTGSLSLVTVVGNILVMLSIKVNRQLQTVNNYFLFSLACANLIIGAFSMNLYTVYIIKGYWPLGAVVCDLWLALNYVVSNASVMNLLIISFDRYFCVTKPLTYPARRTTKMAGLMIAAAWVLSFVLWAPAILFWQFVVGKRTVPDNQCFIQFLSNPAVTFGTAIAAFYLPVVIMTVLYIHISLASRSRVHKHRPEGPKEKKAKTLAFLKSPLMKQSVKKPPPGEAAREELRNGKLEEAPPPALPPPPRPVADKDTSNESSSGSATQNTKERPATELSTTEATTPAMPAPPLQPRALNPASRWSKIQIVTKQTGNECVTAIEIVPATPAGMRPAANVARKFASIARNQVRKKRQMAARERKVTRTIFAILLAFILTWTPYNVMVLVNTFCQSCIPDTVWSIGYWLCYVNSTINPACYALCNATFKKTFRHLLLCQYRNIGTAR
wild type M4 receptor, sequence (P08173 whole entry): as the sequence (P08173 whole entry D78N/D112N, looked up) above, with N78D, N112D counted along it
T2 sequence (P20309 whole entry D114N/D148N, looked up): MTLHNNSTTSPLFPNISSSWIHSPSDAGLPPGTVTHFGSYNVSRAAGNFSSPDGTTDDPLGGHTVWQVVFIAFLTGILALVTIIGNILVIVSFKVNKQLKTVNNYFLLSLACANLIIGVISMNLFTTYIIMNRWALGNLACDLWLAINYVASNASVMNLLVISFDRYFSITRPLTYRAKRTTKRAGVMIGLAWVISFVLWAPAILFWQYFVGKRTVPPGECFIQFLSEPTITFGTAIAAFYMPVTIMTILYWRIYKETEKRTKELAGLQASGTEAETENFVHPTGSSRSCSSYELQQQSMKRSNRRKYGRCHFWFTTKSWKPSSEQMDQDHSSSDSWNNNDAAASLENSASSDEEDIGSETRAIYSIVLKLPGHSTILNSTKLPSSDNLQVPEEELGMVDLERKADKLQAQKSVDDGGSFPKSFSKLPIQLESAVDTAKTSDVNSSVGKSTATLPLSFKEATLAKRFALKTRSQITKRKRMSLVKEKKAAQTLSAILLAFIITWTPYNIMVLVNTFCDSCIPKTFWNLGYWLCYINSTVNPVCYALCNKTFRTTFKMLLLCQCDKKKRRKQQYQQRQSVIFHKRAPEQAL
M2 wild type, sequence (P08172 whole entry): as the sequence (P08172 whole entry D69N/D103N, looked up) above, with N69D, N103D counted along it
wild type M2 muscarinic receptors, sequence (P08172 whole entry): as the sequence (P08172 whole entry D69N/D103N, looked up) above, with N69D, N103D counted along it
wild type M1 muscarinic receptors, sequence (P11229 whole entry): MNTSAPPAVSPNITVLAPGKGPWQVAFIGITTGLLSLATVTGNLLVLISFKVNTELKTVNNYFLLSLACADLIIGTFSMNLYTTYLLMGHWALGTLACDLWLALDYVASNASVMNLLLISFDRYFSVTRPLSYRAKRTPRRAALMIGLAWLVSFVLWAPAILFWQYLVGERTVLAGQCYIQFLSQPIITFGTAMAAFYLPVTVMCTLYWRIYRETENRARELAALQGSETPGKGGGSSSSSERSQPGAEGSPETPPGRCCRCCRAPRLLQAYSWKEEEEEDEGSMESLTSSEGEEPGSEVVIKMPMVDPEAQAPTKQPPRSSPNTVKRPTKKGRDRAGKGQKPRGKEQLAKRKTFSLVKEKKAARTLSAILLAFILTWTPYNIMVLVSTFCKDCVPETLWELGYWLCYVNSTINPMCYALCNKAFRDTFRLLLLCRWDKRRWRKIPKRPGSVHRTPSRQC
M2 D103N, sequence (P08172 whole entry D103N, looked up): as the sequence (P08172 whole entry D69N/D103N, looked up) above, with N69D counted along it

Question: Which results are given for CN(CC#CCOC(=O)Nc1cccc(Cl)c1)CCBr [BR384, 4-[(2-bromoethyl)methyl-amino]-2-butynyl N-(3-chlorophenyl)carbamate]?
Answer: Δ log K1 [1]: 1.23 ± 0.26; increase in affinity relative to wild type [2]: about 30 fold; Δ log K1 [2]: −1.39 ± 0.35; Δ log K1 [3]: −0.17 ± 0.43; Δ log K1 [4]: −0.25 ± 0.25; Δ log K1 [5]: 1.17 ± 0.07; increase in affinity relative to wild type [6]: ~5 fold; Δ log K1 [6]: −0.69 ± 0.02; Δ log K1 [7]: 0.48 ± 0.08; Δ log K1 [8]: 0.75 ± 0.12; Δ log K1 [9]: 0.65 ± 0.13; increase in affinity relative to wild type [10]: about 30 fold; Δ log K1 [10]: −1.27 ± 0.11; Δ log K1 [11]: −0.62 ± 0.17; Δ log K1 [12]: 0.69 ± 0.32 ^c; average estimate of k1 [13]: 0.82 min⁻¹; b (proportion of receptors that can bind [3H]NMS but not be alkylated) [13]: 7.7 ± 1.8% and 7.7%; k1 (rate constant for alkylation) [13]: 0.93 ± .020 min⁻¹; rate constant (k1) [13]: 0.99 ± 0.045 min⁻¹ and 1.05 ± 0.10 min⁻¹ and 0.75 ± 0.06 min⁻¹ and 0.74 ± 0.086 min⁻¹; Kd ([13]; average estimate of log K1): 8.71 µM; Kd ([13]; log K1 (dissociation constant of the aziridinium ion)): 8.91 µM; Kd ([13]; log dissociation constant (log K1)): 12.3 µM and 7.94 µM and 6.76 µM; alkylation [14]: 48 ± 4.2%; alkylation [15]: 44 ± 0.6%; IC50 [16]: 28.8 µM; inhibition at 300 µM [16, 28]: 97 ± 1.3%; IC50 [17]: 69.2 µM; inhibition at 300 µM [17, 28]: 88 ± 0.7%; receptors alkylated after adding the stopping solution [18]: 28%; receptors alkylated after adding the stopping solution [19]: 28%; rate of recovery of [3H]NMS binding [20]: negligible; maximum estimate of b [21]: 0.067; maximum estimate of b [22]: 0.085; affinity of the aziridinium ion relative to McN-A-343 [23]: four- to seven-fold higher affinity; contractile action [24]: lack of contractile action

Question: With CC(=O)OCC[N+](C)(C)C [Acetylcholine, acetylcholine] as the compound, how does the “Hill slope of competition curve” value [25] read?
Answer: 0.69

Question: What about the “affinity relative to the aziridinium ion of AChM” value [25] of the same compound?
Answer: about 15 fold

Question: What about the “affinity relative to the aziridinium ion of AChM” value [26] of the same compound?
Answer: five-fold higher affinity

Question: And the “Hill slope of competition curve” value [27]?
Answer: 0.56
